{
  "source": "ChEMBL document CHEMBL3868637",
  "about": "“Treatment of HIV Infections with HIV Integrase Inhibitors” (ACS Med Chem Lett, 2017)",
  "key": {"[1]": {"experiment": "Inhibition of HIV 3B integrase infected in human MT4 cells assessed as reduction in viral replication after 5 days by CellTiter-Glo assay", "assay_type": "cell-based", "conditions": "Human immunodeficiency virus 1, 3B, MT4, 120 h"}, "[2]": {"experiment": "Cytotoxicity against human MT4 cells assessed as reduction in cell viability measured after 5 days by CellTiter-Glo assay", "assay_type": "toxicity, cell-based"}},
  "data": [
    {"smiles": "O=C(NCc1c(F)cc(F)cc1F)c1cn2c(c(O)c1=O)C(=O)N1CCCC[C@]13COCC[C@H]23", "values": [
      {"measurement": "EC50", "setting": "[1]", "value": 0.00194, "unit": "µM"},
      {"measurement": "CC50 at 120 h", "setting": "[2]", "value": 33.6, "unit": "µM"}
    ]},
    {"smiles": "C[C@H]1CCO[C@]23CCC[C@H]2n2cc(C(=O)NCc4ccc(F)c(Cl)c4F)c(=O)c(O)c2C(=O)N13", "values": [
      {"measurement": "EC50", "setting": "[1]", "value": 0.0118, "unit": "µM"},
      {"measurement": "CC50 at 120 h", "setting": "[2]", "value": 17.5, "unit": "µM"}
    ]},
    {"smiles": "C[C@@H]1CO[C@@]23CCOC[C@@H]2n2cc(C(=O)NCc4ccc(F)c(Cl)c4F)c(=O)c(O)c2C(=O)N13", "values": [
      {"measurement": "EC50", "setting": "[1]", "value": 0.00182, "unit": "µM"},
      {"measurement": "CC50 at 120 h", "setting": "[2]", "value": 7.53, "unit": "µM"}
    ]},
    {"smiles": "O=C(NCc1ccc(F)c(Cl)c1F)c1cn2c(c(O)c1=O)C(=O)N1CCS[C@]13COCC[C@H]23", "values": [
      {"measurement": "EC50", "setting": "[1]", "value": 0.0012, "unit": "µM"},
      {"measurement": "CC50 at 120 h", "setting": "[2]", "value": 10.8, "unit": "µM"}
    ]},
    {"smiles": "COc1c2n(cc(C(=O)NCc3ccc(F)c(Cl)c3F)c1=O)[C@H]1CCC[C@]13OCCN3C2=O", "values": [
      {"measurement": "EC50", "setting": "[1]", "value": 0.00253, "unit": "µM"},
      {"measurement": "CC50 at 120 h", "setting": "[2]", "value": 4.94, "unit": "µM"}
    ]},
    {"smiles": "O=C(NCc1ccc(F)c(Cl)c1F)c1cn2c(c(O)c1=O)C(=O)N1CC=CC[C@]13CCOC[C@H]23", "values": [
      {"measurement": "EC50", "setting": "[1]", "value": 0.00462, "unit": "µM"},
      {"measurement": "CC50 at 120 h", "setting": "[2]", "value": 8.02, "unit": "µM"}
    ]}
  ]
}
